Laboratory results reported in patent US4634707A, “5-Pyrimidinecarboxamides and treatment of leukemia and tumors therewith” (Uniroyal Chemical Company, priority 1984, dated 1987).
Values joined by “and” are separate entries in the source; they are usually repeats but may differ in a detail not shown here. Equal values may be shown once.

Assays:
[1] = system: CD8F1 mammary tumor; assay: NCI 3CDJ2, s.c.-implanted staged mammary adenocarcinoma CD8F1; type: in vivo, murine (mice); set-up: key to Treated/Control percent: (-): toxic dose
Protocol: (§1) The spectrum of antitumor activity of the compound of Example 1 was determined employing a number of standard National Cancer Institute (NCI) protocols. The antitumor activity was determined in vivo against several different tumors, employing various treatment schedules and routes of administration.
(§2) The ratio of the survival time for the treated animals (T) to the survival time for the control animals (C) determined at varying dosages in the respective in vivo tests is set forth in the table: […]

[2] = system: B16 melanoma; assay: NCI 3B131, i.p.-implanted B16 melanoma; type: in vivo, murine (mice)
Protocol: as §1, §2

[3] = system: L1210 leukemia; assay: NCI 3LE31, i.p.-implanted L1210 lymphoid leukemia; type: in vivo, DBA/2 mice
Protocol: as §1
Samples of the test compounds of Examples 1-10 and a number of structurally-related control compounds were tested in accordance with National Cancer Institute test protocol 3LE31 (NCI Protocol 1.100, Cancer Chemotherapy Reports Part 3, Vol. 3, No. 2, September 1972) to determine the effects of the several compounds on i.p.-implanted L1210 leukemia (J. Nat'l. Cancer Inst. 13(5):1328, 1953). Each test involved implantation of the leukemia cells in six DBA/2 mice, one sex per experiment, the male mice weighing a minimum of 18 grams and the female mice weighing a minimum of 17 grams, and all of the test animals being within a three gram weight range. The test compound was administered by i.p. injections, in 0.1 ml. doses of diluted ascitic fluid (10^5 cells per dose), commencing one day after the tumor implant and continuing daily for nine days.
The test animals were weighed and survivors recorded on a regular basis during a thirty day test period. The ratio of survival time for the treated and control animals (T/C) was determined as a percentage.
The tests were carried out at varying dosage levels and with varying numbers of repetitions, depending upon the results obtained with each test compoud. […] A reproducible T/C of 150% or higher is considered significant activity.
The number of mice "cured", viz., those surviving from each animal test group after the thirty day test period, is indicated in parenthesis following the T/C percentage data in Table III below: […]

[4] = system: L1210 leukemia; assay: Effects of treatment schedule and route of administration against s.c.-implanted L1210 leukemia; type: in vivo
Protocol: The influences of treatment schedule and route of administration on the antitumor activity of the compound of Example 1 were evaluated using the s.c. implanted L1210 leukemia system. The drug was tested in the form of a freeze dried dosage form containing 50 mg. of the compound and 100 mg. N-methylglucamine, reconstituted with 5 ml. of sterile water to yield a 10 mg/ml. solution at about pH 9.5.
The percentage increases in life span (%ILS) are shown in the accompanying drawing for different treatment regimens and routes of administration. […] The highest percent ILS was 471 obtained by daily i.p. injections of the active material on a five day schedule of 45 mg/kg/injection, corresponding to a total dose of 225 mg/kg/duration of the treatment (test C in the drawing). This dosage also gave 5 cures.

[5] = system: L1210 leukemia; assay: NCI 3LE32, s.c.-implanted L1210 leukemia; type: in vivo, murine (mice); set-up: key to Treated/Control percent: (-): toxic dose
Protocol: as §1, §2

[6] = system: Lewis lung carcinoma; assay: NCI 3LL39, i.v.-implanted Lewis lung carcinoma; type: in vivo, murine (mice)
Protocol: as §1, §2

[7] = system: P388 leukemia; assay: NCI 3PS31, i.p.-implanted P388 leukemia; type: in vivo, murine (mice); set-up: key to Treated/Control percent: (-): toxic dose
Protocol: as §1, §2

[8] = system: Colon 38 tumor; assay: NCI 3C872, s.c.-implanted colon 38 carcinoma; type: in vivo, murine (mice); set-up: key to Treated/Control percent: (-): toxic dose
Protocol: as §1, §2

[9] = system: L1210 leukemia; assay: NCI 3LE37, i.c.-implanted L1210 leukemia; type: in vivo, murine (mice); set-up: key to Treated/Control percent: (-): toxic dose
Protocol: as §1, §2

[10] = system: M5076 sarcoma; assay: NCI 3M531, i.p.-implanted M5076 sarcoma; type: in vivo, murine (mice); set-up: key to Treated/Control percent: (-): toxic dose
Protocol: as §1
In three experiments involving the i.p. implanted M5076 sarcoma, maximum ILS values of 72, 72 and 48% were achieved after i.p. treatment on days 1, 5, 9 and 13.
as §2

[11] = system: MX-1 mammary tumor; assay: NCI 3MBG5, s.r.c. human mammary carcinoma MX-1 xenograft; type: in vivo, human tumor xenograft; set-up: key to Treated/Control percent: (-): toxic dose
Protocol: as §1, §2

[12] = 50 mg/kg, stated jointly for i.p. and s.c. L1210 systems
[13] = i.p. L1210, i.p. days 1-9 (Table I)
[14] = s.c. L1210, i.p. days 1-9 (Table I)

Q: For `O=C(Nc1ccccc1)c1c(O)[nH]c(=S)[nH]c1=O` [Example 1, 1,2,3,4-tetrahydro-6-hydroxy-4-oxo-N-phenyl-2-thioxo-5-pyrimidinecarboxamide], which Treated/Control percent ([1]; 56 mg/kg) is on record?
A: 61%

Q: What about the Treated/Control percent ([1]; 112 mg/kg) of the same compound?
A: 80%

Q: What about the Treated/Control percent ([1]; 225 mg/kg) of the same compound?
A: (-)

Q: And the Treated/Control percent ([1]; 450 mg/kg)?
A: (-)

Q: What about the Treated/Control percent ([1]; 900 mg/kg) of the same compound?
A: (-)

Q: What about the “effectiveness (in words)” value ([1]; s.c. implanted CD8F1, experimental conditions employed) of the same compound?
A: ineffective

Q: What about the Treated/Control percent ([2]; 6 mg/kg) of the same compound?
A: 108%

Q: And the Treated/Control percent ([2]; 12 mg/kg)?
A: 128%

Q: And the Treated/Control percent ([2]; 25 mg/kg)?
A: 137% and 158%

Q: What about the Treated/Control percent ([2]; 50 mg/kg) of the same compound?
A: 152% and 169%

Q: What about the Treated/Control percent ([2]; 100 mg/kg) of the same compound?
A: 185% and 193%

Q: And the “increase in life-span (% ILS)” value ([2]; i.p. B16, days 1-9 i.p., optimal values at 100 mg/kg, 100 mg/kg)?
A: 93% and 85%

Q: What about the “Activity (ILS)” value ([2]; over at least a 4-fold dosage range) of the same compound?
A: 25%

Q: And the “maximum increased life spans” value [3, 12]?
A: 87-190%

Q: What about the “cures (in words)” value ([3]; 100 mg/kg) of the same compound?
A: produced a number of cures at 100 mg/kg

Q: And the “curative, share of test mice” value ([3]; 100 mg/kg i.p. daily for 9 days, i.p. L1210)?
A: at least 50%

Q: And the “toxicity of 100 mg/kg dose” value ([3]; 100 mg/kg i.p. daily for 9 days, i.p. system)?
A: occasionally demonstrated some toxicity

Q: What about the “activity in i.p.-implanted lymphoid leukemia test (in words)” value ([3]; 3LE31, reproducible T/C of 150% or higher is considered significant activity) of the same compound?
A: exhibited significant activity

Q: What about the response vs control in vivo at 6.25 mg/kg ([3]; Mus musculus, L1210, ip, 6.25 mg/kg i.p. daily for nine days, read-out: T/C % (survival time treated/control)) of the same compound?
A: 116%

Q: And the response vs control in vivo at 12.5 mg/kg ([3]; Mus musculus, L1210, ip, 12.5 mg/kg i.p. daily for nine days, read-out: T/C % (survival time treated/control))?
A: 117%

Q: What about the cures/total [3, 13] of the same compound?
A: 4/6 and 6/6

Q: What about the “increase in life-span (% ILS)” value [3, 13] of the same compound?
A: > 275% and > 229%

Q: And the “increases in life span by treatment and route (in words)” value ([4]; all treatments and routes, exceptions tests A and G (i.p. and i.v. one day, one injection))?
A: increases in life span were noted using all treatments and routes of administration save for the i.p. and i.v. one day, one injection treatments

Q: And the “substantial increases in life span (% ILS)” value ([4]; each route and schedule save single treatment i.p. and i.v.)?
A: > 25%

Q: What about the “toxicity (in words)” value ([4]; highest dose in each schedule, exception test F (i.p. every three hours on days one, five and nine)) of the same compound?
A: toxicity was noted with the highest dose in each treatment schedule except for that involving i.p. administration every three hours on days one, five and nine of a nine day test

Q: And the cures ([4]; test C: daily i.p., five days, 45 mg/kg/injection)?
A: 5

Q: What about the “increase in life span (% ILS)” value ([4]; test C: daily i.p., five days, 45 mg/kg/injection, total 225 mg/kg) of the same compound?
A: 471%

Q: And the cures ([4]; test I: oral daily for nine days, 124 mg/kg/injection)?
A: 4

Q: What about the “increase in life span (% ILS)” value ([4]; test I: oral daily for nine days, 124 mg/kg/injection, cumulative 1116 mg/kg) of the same compound?
A: 452%

Q: And the Treated/Control percent ([5]; 12.5 mg/kg)?
A: 109% and 104%

Q: What about the Treated/Control percent ([5]; 25 mg/kg) of the same compound?
A: 108% and 99%

Q: What about the Treated/Control percent ([5]; 50 mg/kg) of the same compound?
A: 140% and 127%

Q: What about the “maximum increased life spans” value [5, 12] of the same compound?
A: 87-190%

Q: What about the Treated/Control percent ([5]; 100 mg/kg) of the same compound?
A: 300% and 254%

Q: What about the “cures in test at specified dose” value ([5]; 100 mg/kg) of the same compound?
A: 5 and 3

Q: And the “curative, share of test mice” value ([5]; 100 mg/kg i.p. daily for 9 days, s.c. L1210)?
A: at least 50%

Q: What about the Treated/Control percent ([5]; 200 mg/kg) of the same compound?
A: (-)

Q: What about the cures/total [5, 14] of the same compound?
A: 5/6 and 3/6

Q: And the “increase in life-span (% ILS)” value [5, 14]?
A: > 200% and > 154%

Q: What about the Treated/Control percent ([6]; 12.5 mg/kg) of the same compound?
A: 103%

Q: And the Treated/Control percent ([6]; 25 mg/kg)?
A: 106%

Q: What about the Treated/Control percent ([6]; 50 mg/kg) of the same compound?
A: 115%

Q: And the Treated/Control percent ([6]; 100 mg/kg)?
A: 126%

Q: And the “effectiveness (in words)” value ([6]; i.v. implanted, experimental conditions employed)?
A: ineffective

Q: What about the Treated/Control percent ([7]; 3.13 mg/kg) of the same compound?
A: 110%

Q: What about the Treated/Control percent ([7]; 6.25 mg/kg) of the same compound?
A: 116%

Q: What about the Treated/Control percent ([7]; 12.5 mg/kg) of the same compound?
A: 120%

Q: And the Treated/Control percent ([7]; 25 mg/kg)?
A: 145% and 138%

Q: What about the Treated/Control percent ([7]; 50 mg/kg) of the same compound?
A: 162% and 194% and 201%

Q: What about the Treated/Control percent ([7]; 100 mg/kg) of the same compound?
A: (-)

Q: And the Treated/Control percent ([7]; 200 mg/kg)?
A: (-)

Q: What about the “increase in life-span (% ILS)” value ([7]; i.p. P388, 50 mg/kg i.p. daily, five days, maximum values) of the same compound?
A: 101% and 94% and 62%

Q: What about the “activity (in words)” value ([7]; standard NCI P388 preliminary screen) of the same compound?
A: good activity

Q: What about the Treated/Control percent ([8]; 56 mg/kg) of the same compound?
A: 70% and 120%

Q: And the Treated/Control percent ([8]; 225 mg/kg)?
A: 51%

Q: What about the Treated/Control percent ([8]; 450 mg/kg) of the same compound?
A: (-)

Q: What about the Treated/Control percent ([8]; 900 mg/kg) of the same compound?
A: (-)

Q: What about the “effectiveness (in words)” value ([8]; s.c. implanted colon 38, experimental conditions employed) of the same compound?
A: ineffective

Q: What about the Treated/Control percent ([9]; 12.5 mg/kg) of the same compound?
A: 94% and 106%

Q: And the Treated/Control percent ([9]; 25 mg/kg)?
A: 98%

Q: And the Treated/Control percent ([9]; 50 mg/kg)?
A: 113% and 108%

Q: And the Treated/Control percent ([9]; 100 mg/kg)?
A: 128% and 134%

Q: What about the “activity (in words)” value ([9]; 100 mg/kg i.p. daily for 9 days) of the same compound?
A: marginal activity

Q: And the Treated/Control percent ([9]; 200 mg/kg)?
A: (-)

Q: What about the “increase in life-span (% ILS)” value ([9]; i.c. L1210, 100 mg/kg i.p. daily for 9 days) of the same compound?
A: 28-34%

Q: And the Treated/Control percent ([10]; 12.5 mg/kg)?
A: 117%

Q: And the Treated/Control percent ([10]; 25 mg/kg)?
A: 101% and 130%

Q: And the Treated/Control percent ([10]; 50 mg/kg)?
A: 124% and 147%

Q: And the Treated/Control percent ([10]; 100 mg/kg)?
A: 148% and 172%

Q: And the Treated/Control percent ([10]; 200 mg/kg)?
A: (-)

Q: And the cures/total ([10]; i.p. M5076, Days 1-13)?
A: 2/10

Q: What about the “increase in life-span (% ILS)” value ([10]; i.p. M5076, i.p. treatment on days 1, 5, 9 and 13, maximum values) of the same compound?
A: 72% and 48%

Q: And the Treated/Control percent ([11]; 75 mg/kg)?
A: 98%

Q: And the Treated/Control percent ([11]; 150 mg/kg)?
A: (-)

Q: And the Treated/Control percent ([11]; 300 mg/kg)?
A: (-)

Q: What about the Treated/Control percent ([11]; 600 mg/kg) of the same compound?
A: (-)

Q: What about the “effectiveness (in words)” value ([11]; s.r.c. xenograft, experimental conditions employed) of the same compound?
A: ineffective
